The source of these data is patent publication US8993585B2, “Cyclic amine substituted pyrimidinediamines as PKC inhibitors” (Rigel Pharmaceuticals, Inc., priority 2007, dated 2015).

pIC50: −log10 of the molar value.

One experiment deals with Human primary T cells. Nature of the experiment: IL-2 ELISA, Human Primary T Cell, Anti-CD3+CD28+ (Example 3). The class given is cell-based. To be noted: Homo sapiens, T-cell, 24 h, anti-CD3+CD28 stimulation. Summed up: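 Human primary T cells, 100,000 per well, were pre-incubated with compound in Yssel's medium for 1 h at 37 °C. The counter-assay used 0.5 ng/ml PMA with 0.1 uM ionomycin final.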
On the technique in general: ELISA stands for enzyme-linked immunosorbent assay.
Turning to `COc1cc(Nc2ncc(F)c(N(Cc3ccc(-c4ccccc4C#N)cc3)C3CC(C)(C)N(C)C(C)(C)C3)n2)cc(OC)c1` [Compound I-325], the pIC50 is 5.46.

As for `COc1cc(Nc2ncc(OC)c(NC3CC(C)(C)N(C)C(C)(C)C3)n2)cc(-n2nnnc2C)c1` [Compound I-424], the pIC50 was 6.00.

The compound `CN1C(=O)C(C)(C)Sc2cc(Nc3ncc(F)c(NC4CC(C)(C)N(C)C(C)(C)C4)n3)ccc21` [II-62] showed a pIC50 of 7.42.

Turning to `Cc1ccc(C)n1-c1cc(Nc2ncc(F)c(NC3CC(C)(C)NC(C)(C)C3)n2)ccc1OCCN1CCCC1` [Compound I-442], the pIC50 was 5.75.

`CCN(CC)C1CCC(Nc2nc(Nc3ccc(N4CCN(S(C)(=O)=O)CC4)c(Cl)c3)ncc2F)CC1` (centres unmarked) [IV-4, N2-[3-Chloro-4-(4-methylsulfonylpiperazino)]phenyl-N4-(4-diethylamino)cyclohexyl-5-fluoro-2,4-pyrimidinediamine] showed a pIC50 of 5.15.

As for `COc1cc(Nc2ncc(F)c(NC3CC(C)(C)N(C)C(C)(C)C3)n2)cc(OCCn2cccc2)c1` [Compound I-437], the pIC50 is 6.77.

Compound `CC1(C)CC(Nc2nc(Nc3ccc4c(c3)OC3(CCCC3)O4)ncc2F)CC(C)(C)N1` [II-120] showed a pIC50 of 5.87.

As to `Cc1nc2cc(Nc3ncc(F)c(NC4CC(C)(C)N(C)C(C)(C)C4)n3)ccc2o1` [II-30], the pIC50 is 4.95.

Take `CN1C(C)(C)CC(Nc2nc(Nc3ccc4c(c3)n(C)c(=O)n4C)ncc2F)CC1(C)C` [II-56]: the pIC50 was 6.01.

As for `COc1ccc(-c2csc(Nc3ncc(F)c(NC4CC(C)(C)N(C)C(C)(C)C4)n3)n2)cc1F` [II-137], the pIC50 was 6.34.

With `COc1cc(Nc2ncc(F)c(N(Cc3cc4c(cc3Br)OCO4)C3CC(C)(C)N(C)C(C)(C)C3)n2)cc(OC)c1` [Compound I-323], the pIC50 is 5.33.

In the case of `CCn1c(=O)oc2ccc(Nc3ncc(F)c(NC4CC(C)(C)N(C)C(C)(C)C4)n3)cc21` [II-173], the pIC50 was 5.88.

The same experiment, now with this note: T-cell, anti-CD3+CD28 stimulation, 24 hours.
The compound `COc1cc(Nc2ncc(C#C[Si](C)(C)C)c(NC3CC(C)(C)N(C)C(C)(C)C3)n2)cc(OC)c1` [Compound I-430] showed a pIC50 of 5.35.

The experiment is the same for the next values; noted with them: anti-CD3+CD28 stimulation, 24 hours.
Compound `COC(=O)N1CCN(c2ccc(Nc3ncc(F)c(NC4CC(C)(C)N(C)C(C)(C)C4)n3)cc2C(F)(F)F)CC1` [Compound I-47] gave a pIC50 of 6.87.

`CC(C)Oc1ccc(Nc2ncc(F)c(NC3CC(C)(C)N(C)C(C)(C)C3)n2)cc1Cl` [Compound I-346] showed a pIC50 of 6.61.

In the case of `CN1C(C)(C)CC(Nc2nc(Nc3ccc(-n4cccc4)c(C#N)c3)ncc2C(F)(F)F)CC1(C)C` [Compound I-172], the pIC50 is 6.17.

Consider `CN1C(C)(C)CC(Nc2nc(Nc3ccc(F)c(-c4cc5ccccc5s4)c3)ncc2F)CC1(C)C` [Compound I-181], for which the pIC50 is 5.88.

As for `COc1cc(Nc2ncc(F)c(NC3CC(C)(C)N(C)C(C)(C)C3)n2)ccc1-n1nnnc1C` [Compound I-407], the pIC50 is 5.57.

For the compound `CN1CCN(Cc2ccc(Nc3ncc(F)c(NC4CC(C)(C)N(C)C(C)(C)C4)n3)cc2Cl)CC1` [Compound I-57], the pIC50 is 6.44.

Regarding `CN1C(C)(C)CC(Nc2nc(Nc3ccc(N4CCN(S(C)(=O)=O)CC4)c(C(F)(F)F)c3)ncc2F)CC1(C)C` [Compound I-48], the pIC50 was 7.41.

The compound `CN1C(C)(C)CCC(Nc2nc(Nc3cc(Cl)cc(Cl)c3)ncc2F)CC1(C)C` (centres unmarked) [Compound I-265, 5-Fluoro-N2-[3,5-dichloro]phenyl-N4-(1,2,2,7,7-pentamethylazepan-4-yl)-2,4-pyrimidinediamine] had a pIC50 of 5.36.

With `COc1ccc(Nc2ncc(F)c(NC3CC(C)(C)N(C)C(C)(C)C3)n2)cc1OC` [Compound I-130], the pIC50 is 5.96.

For the compound `CN1CC2(C)CN(c3ccc(Nc4ncc(F)c(NC5CC(C)(C)N(C)C(C)(C)C5)n4)cc3C(F)(F)F)CC(C)(C1)C2` [Compound I-259], the pIC50 was 5.59.

Compound `CN1C(C)(C)CC(Nc2nc(Nc3ccc(N4CCCCC4)c(C(F)(F)F)c3)ncc2F)CC1(C)C` [Compound I-233] gave a pIC50 of 5.80.

As to `CN1CCN(c2ccc(Nc3ncc([N+](=O)[O-])c(NC4CC(C)(C)N(C)C(C)(C)C4)n3)cc2C(F)(F)F)CC1` [Compound I-74], the pIC50 is 6.18.

The compound `CC(=O)N1CCN(c2ccc(Nc3ncc(F)c(NC4CC(C)(C)N(C)C(C)(C)C4)n3)cc2Cl)CC1` [Compound I-67] gave a pIC50 of 6.46.

Compound `COc1ccc(Nc2ncc(F)c(NC3CCC(C)(C)N(C)C(C)(C)C3)n2)cc1OC` (centres unmarked) [Compound I-267, 5-Fluoro-N2-[3,4-dimethoxy]phenyl-N4-(1,2,2,7,7-pentamethylazepan-4-yl)-2,4-pyrimidinediamine] had a pIC50 of 4.93.

Regarding `CN1C(C)(C)CC(Nc2nc(Nc3ccc(-c4cc5ccccc5s4)c(Cl)c3)ncc2F)CC1(C)C` [Compound I-156], the pIC50 was 5.54.

Regarding `CN1C(C)(C)CC(Nc2nc(Nc3ccc(OC(F)(F)F)c(-c4cnn(C)c4)c3)ncc2F)CC1(C)C` [Compound I-210], the pIC50 was 5.91.

In turn, `CN1C(C)(C)CC(Nc2nc(Nc3ccc(OC(F)(F)F)c(Cl)c3)ncc2F)CC1(C)C` [Compound I-334] had a pIC50 of 5.99.

`CN1C(C)(C)CC(Nc2nc(Nc3cc(-c4cccnc4)cc(C(F)(F)F)c3)ncc2F)CC1(C)C` [Compound I-202] showed a pIC50 of 6.21.

`COc1ccc(Nc2ncc(F)c(NC3CC(C)(C)N(C)C3(C)C)n2)cc1C(F)(F)F` (centres unmarked) [Compound I-283, 5-Fluoro-N2-(4-methoxy-3-trifluoromethyl)phenyl-N4-(1,2,2,5,5-pentamethylpyrrolidin-3-yl)-2,4-pyrimidinediamine] had a pIC50 of 5.57.

On to `CN1C(C)(C)CC(Nc2nc(Nc3ccc(N4CCSCC4)c(C(F)(F)F)c3)ncc2F)CC1(C)C` [Compound I-331], for which the pIC50 is 6.09.

Take `COc1cc(F)cc(Nc2ncc(F)c(NC3CC(C)(C)N(C)C(C)(C)C3)n2)c1` [Compound I-443]: the pIC50 was 6.40.

`COc1ccc(Nc2ncc(F)c(NC3CC(C)(C)N(C)C(C)(C)C3)n2)cc1-c1ccoc1` [Compound I-183] showed a pIC50 of 6.05.

`CN1C(C)(C)CC(Nc2nc(Nc3cc(OCC(F)(F)F)cc(OCC(F)(F)F)c3)ncc2C#N)CC1(C)C` [Compound I-411] gave a pIC50 of 6.55.

`CN1C(C)(C)CC(Nc2nc(Nc3cccc(-n4cnnn4)c3)ncc2C#N)CC1(C)C` [Compound I-405] showed a pIC50 of 6.62.

`COc1cc(Nc2ncc(F)c(NC3CC(C)(C)N(C)C(C)(C)C3)n2)cc(OC)c1` [Compound I-307]: the pIC50 is 6.49.

In turn, `CN1C(C)(C)CC(Nc2nc(Nc3ccc(OCCN4CCOCC4)c(Cl)c3)ncc2F)CC1(C)C` [Compound I-368] showed a pIC50 of 6.53.

In turn, `CN1C(C)(C)CC(Nc2nc(Nc3cccc(NS(C)(=O)=O)c3)ncc2F)CC1(C)C` [Compound I-243] had a pIC50 of 6.17.

In turn, `Cc1ccc(Nc2ncc(F)c(NC3CC(C)(C)N(C)C(C)(C)C3)n2)cc1-c1cc2ccccc2s1` [Compound I-189] had a pIC50 of 5.91.

Consider `CN1C(C)(C)CC(Nc2nc(Nc3cccc(-c4cccnc4)c3)ncc2F)CC1(C)C` [Compound I-107], for which the pIC50 is 6.13.

In the case of `Cc1cnc(Nc2ccc(C#N)c(Cl)c2)nc1NC1CC(C)(C)N(C)C(C)(C)C1` [Compound I-28], the pIC50 was 6.34.

In turn, `CN1C(C)(C)CC(Nc2nc(Nc3ccc(NC(=O)c4ccccc4)cc3)ncc2F)CC1(C)C` [Compound I-133] showed a pIC50 of 5.95.

Broadly, the pIC50 is the IC50 on a negative log10 scale, so that one unit is a factor of ten. Higher therefore signals a low IC50.
